For data set [1], the target named is T1, Human TLR10 Fc Chimera protein (extracellular domain) (Homo sapiens, UniProt Q9BXR5).
T1 construct: Chimera protein (extracellular domain, amino acid 20-576;); Fc (chimera); purchased R&D system #6619-TR-050
T1 sequence (Q9BXR5 20-576): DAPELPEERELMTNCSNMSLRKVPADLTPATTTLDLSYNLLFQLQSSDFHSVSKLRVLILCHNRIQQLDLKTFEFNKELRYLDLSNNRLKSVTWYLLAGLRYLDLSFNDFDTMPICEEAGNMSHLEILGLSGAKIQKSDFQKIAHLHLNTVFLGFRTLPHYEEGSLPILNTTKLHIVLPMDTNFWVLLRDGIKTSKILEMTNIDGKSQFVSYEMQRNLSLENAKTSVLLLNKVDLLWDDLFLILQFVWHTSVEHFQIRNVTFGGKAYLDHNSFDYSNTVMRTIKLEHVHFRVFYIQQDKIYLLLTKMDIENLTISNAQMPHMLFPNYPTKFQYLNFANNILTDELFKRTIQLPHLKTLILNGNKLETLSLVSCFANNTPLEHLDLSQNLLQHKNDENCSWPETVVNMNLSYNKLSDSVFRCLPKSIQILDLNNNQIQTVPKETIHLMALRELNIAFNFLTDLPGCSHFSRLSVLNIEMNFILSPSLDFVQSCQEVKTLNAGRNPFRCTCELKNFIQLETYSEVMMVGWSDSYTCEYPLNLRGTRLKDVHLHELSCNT
In words: Surface plasmon resonance binding to TLR10. The note with it: SPR. As to the method: Reagents were purchased from Nacalai Tesque, Wako Pure Chemical Industries, Sigma-Aldrich Japan, or TCI Chemicals and were used as received. […]
Anti-HA magnetic beads were from Pierce Thermo […]
2000c spectrophotometer (Thermo Scientific) equipped with a 5 mm pathlength quartz cuvette using extinction coefficient values calculated with ExPASy ProtParam tool (https://web.expasy.org/protparam). […]
Biochemical measurements (sections 2.10 – 2.14) were performed in triplicate or more. Most […]
determination of biophysical parameters involved cell assay (CP50 and IC50), reported are standard errors of the fit; otherwise, error bars are standard deviations. […]
Background: Surface plasmon resonance follows binding to a sensor surface in real time, without labels.

The nature of a further data set: Serum stability assay. The format is in vitro ADME. The note with it: pH 7.6; human serum, 37 °C, LC/MS; read-out: serum stability τ1/2 (converted). As to the method:
Next, we tested the metabolic stability of the discovered thiopeptides. The compounds were incubated in human serum at 37 °C in the presence of an internal control, and the amounts of the remaining analytes were quantified by LC/MS (Figures S27 and 28). […] At the other extreme, IR11 rapidly degraded in human serum with τ1/2 = 0.5 h. […]
Kinetic parameters and affinities of the […]
2.12. Thiopeptide metabolic stability experiments
The mixtures were stirred
well and transferred to a 37 °C thermostat. […]

Data set [2] deals with T2, TLR10 (Homo sapiens, UniProt Q9BXR5).
T2 sequence (Q9BXR5 20-576): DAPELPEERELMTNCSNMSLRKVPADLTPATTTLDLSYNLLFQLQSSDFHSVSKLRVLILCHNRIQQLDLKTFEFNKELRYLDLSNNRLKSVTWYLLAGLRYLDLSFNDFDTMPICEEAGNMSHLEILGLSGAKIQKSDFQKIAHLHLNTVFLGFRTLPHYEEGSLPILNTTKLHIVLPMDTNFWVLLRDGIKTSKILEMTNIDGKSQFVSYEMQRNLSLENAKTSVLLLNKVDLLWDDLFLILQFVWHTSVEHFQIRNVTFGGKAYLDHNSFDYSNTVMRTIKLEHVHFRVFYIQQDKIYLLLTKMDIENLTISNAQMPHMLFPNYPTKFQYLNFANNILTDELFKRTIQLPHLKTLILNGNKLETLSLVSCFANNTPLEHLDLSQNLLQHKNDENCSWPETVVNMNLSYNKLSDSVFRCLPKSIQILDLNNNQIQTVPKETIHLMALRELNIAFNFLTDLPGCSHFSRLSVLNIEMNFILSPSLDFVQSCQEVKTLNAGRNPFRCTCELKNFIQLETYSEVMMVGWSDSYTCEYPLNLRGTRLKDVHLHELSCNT
As to the kind of experiment: Single-round mRNA display binding assay (qPCR), TLR10. Conditions: ratio of cDNA recoveries (qPCR), TLR10 pulldown over beads only, single-round selection. A general note: Real-time PCR tracks product formation cycle by cycle.

Data set [3] concerns the target T2, TLR10. In words: mRNA display affinity selection against TLR10, NGS abundance. Also on record: Chimera protein (extracellular domain, amino acid 20-576;); Fc (chimera); purchased R&D system #6619-TR-050. The data set is classed as binding.
Data set [4] has as its target T3, toll-like receptor 10, extracellular domain (UniProt Q9BXR5 20-576).
T3 construct: toll-like receptor 10 (TLR10), extracellular domain; also called TLR10; TLR10 cell surface receptor
T3 sequence (looked up): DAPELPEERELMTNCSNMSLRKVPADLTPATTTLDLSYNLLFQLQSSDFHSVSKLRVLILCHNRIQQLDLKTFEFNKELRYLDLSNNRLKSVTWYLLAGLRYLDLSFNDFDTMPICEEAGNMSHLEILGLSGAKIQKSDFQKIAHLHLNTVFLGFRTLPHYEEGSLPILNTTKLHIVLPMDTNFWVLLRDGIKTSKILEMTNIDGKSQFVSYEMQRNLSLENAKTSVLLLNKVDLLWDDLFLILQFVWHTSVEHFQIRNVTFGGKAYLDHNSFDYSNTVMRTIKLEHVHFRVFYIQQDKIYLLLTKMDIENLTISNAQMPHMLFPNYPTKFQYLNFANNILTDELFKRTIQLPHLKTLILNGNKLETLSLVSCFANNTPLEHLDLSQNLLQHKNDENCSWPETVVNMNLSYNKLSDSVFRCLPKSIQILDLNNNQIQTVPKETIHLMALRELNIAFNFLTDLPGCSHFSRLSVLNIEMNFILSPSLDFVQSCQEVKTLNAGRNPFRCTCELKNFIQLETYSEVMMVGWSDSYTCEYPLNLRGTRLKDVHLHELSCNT
In words: SPR; surface plasmon resonance of synthetic thiopeptides on their target protein; conditions in S.I. 2.10 (not shown). Conditions: both partners purified.

The mark [5] stands for this setting: TLR10 selection, NGS abundance rank.
[6] abbreviates: TLR10 selection pulldown (-), Top100 selection hits, NGS.

*1 amine or outer side, *2 acyl side, *3 side chain or, on linkers, in order; H or OH if unused. Where a SMILES comes first, the peptide text is derived from it. Where no end group is shown, it is not given here. [ ]: non-standard residue; d: D form. hGln = L-homoglutamine, NC(=O)CCC[C@H](N[*:1])C(=O)[*:2]; pyridine‑bisazole = not defined here; Nle = CCCC[C@H](N)C(=O)O; Dha = C=C(N)C(=O)O

For orientation: koff means the first-order rate constant of dissociation. For orientation: kon means the second-order rate constant of association. High values mean faster complex formation, low ones slower complex formation. One may read the Kd as a measure of binding affinity in units of concentration. Low values mean tighter binding, high ones weaker binding.

As for `C=C1NC(=O)[C@H](Cc2ccccc2)NC(=O)[C@H](C)NC(=O)[C@H]([C@@H](C)CC)NC(=O)[C@H](CCCCN)NC(=O)[C@H](CC(N)=O)NC(=O)[C@H](CCC(N)=O)NC(=O)[C@H](CC(N)=O)NC(=O)[C@H]([C@@H](C)O)NC(=O)[C@H](Cc2ccccc2)NC(=O)[C@H](CCCNC(=N)N)NC(=O)[C@H]([C@@H](C)CC)NC(=O)[C@H]([C@@H](C)O)NC(=O)[C@H](Cc2c[nH]c3ccccc23)NC(=O)c2ccc(-c3nc(C(=O)OC)cs3)nc2-c2csc1n2` [TL4] (HELM PEPTIDE1{W.T.I.R.F.T.N.Q.N.K.I.A.F}|CHEM1{[C=C(N[*:2])c1nc(-c2nc(-c3nc(C(=O)OC)cs3)ccc2C(=O)[*:1])cs1]}$PEPTIDE1,CHEM1,1:R1-1:R1|PEPTIDE1,CHEM1,13:R2-1:R2$$$V2.0; bridges inferred), in data set [1], the koff was 0.033 s⁻¹ and the kon was determined as 47500 M⁻¹ s⁻¹. Besides, the half-life at 10 µM in “Serum stability assay” was 4.4 ± 0.3 h. Besides, at TLR10 [2], the “display P/N ratio” value worked out at 975. On TLR10 [3] (setting [5]), the “rank in pulldown(–)” value is listed as 3. For the same molecule, at TLR10 [3] (TLR10 selection, NGS abundance rank, –: not found in the final pulldown(+) libraries at the sequenced depth), the “rank in pulldown(+)” value stood at 7.

In data set [1], `C=C1NC(=O)[C@H](Cc2ccccc2)NC(=O)[C@H](C)NC(=O)[C@H](C(C)C)NC(=O)[C@H](CCCCN)NC(=O)[C@H](CCCNC(=N)N)NC(=O)[C@H](CCC(N)=O)NC(=O)[C@H](CC(C)C)NC(=O)[C@H](Cc2c[nH]c3ccccc23)NC(=O)[C@H](Cc2ccccc2)NC(=O)[C@H](CO)NC(=O)[C@H]([C@@H](C)CC)NC(=O)[C@H](CCCC(N)=O)NC(=O)[C@H](Cc2c[nH]c3ccccc23)NC(=O)c2ccc(-c3nc(C(=O)OC)cs3)nc2-c2csc1n2` [TL3] (HELM PEPTIDE1{W.[O=C([C@H](CCCC(=O)[*:3])N[*:1])[*:2]].I.S.F.W.L.Q.R.K.V.A.F}|PEPTIDE2{[am]}|CHEM1{[C=C(N[*:2])c1nc(-c2nc(-c3nc(C(=O)OC)cs3)ccc2C(=O)[*:1])cs1]}$PEPTIDE1,PEPTIDE2,2:R3-1:R1|PEPTIDE1,CHEM1,1:R1-1:R1|PEPTIDE1,CHEM1,13:R2-1:R2$$$V2.0; bridges inferred) displayed a koff of 0.0056 s⁻¹ and a kon of 6270 M⁻¹ s⁻¹. In the data set “Serum stability assay”, the half-life at 10 µM was 3.2 ± 0.2 h. Moreover, the “display P/N ratio” value at TLR10 [2] amounted to 186. Also, at TLR10 [3] (TLR10 pulldown(−) selection, NGS), the “fraction of the pulldown(−) population” value is 8.1%. On TLR10 [3] (setting [6]), this molecule displayed a Library fraction of 0.095 and a Raw reads of 11388. For the same molecule, at TLR10 [3] (setting [5]), the “rank in pulldown(–)” value is 2.

B1: thiopeptide TL19 (synthetic) (peptide)
chain: SWIGRV[Nle]IK[Dha]SSCSC
modifications: bridge (positions not given here) via pyridine‑bisazole; not fully specified (residue 11); reading uncertain; also: Ser11 is an oxazole, macrocycle closed through a pyridine-bisazole moiety
On to B1, for which the Kd in data set [4] is 570 nM.

B2: thiopeptide TL3 (synthetic) (peptide)
chain: SW[hGln]ISFWLQRKVAFSCSC
modifications: bridge (positions not given here) via pyridine‑bisazole; reading uncertain; also: macrocycle closed through a pyridine-bisazole moiety, oxazole to thiazole change
Regarding B2, in data set [4], the Kd was 890 nM.

B3: thiopeptide TL6 (synthetic) (peptide)
chain: SWT[Nle]LFRLQSKLAISCSC
modifications: bridge (positions not given here) via pyridine‑bisazole; reading uncertain; also: macrocycle closed through a pyridine-bisazole moiety, oxazole to thiazole change
In data set [4], B3 registered a Kd of 630 nM.

B4: thiopeptide TL4 (synthetic) (peptide)
chain: SWTIRFTNQNKIAFSCSC
modifications: bridge (positions not given here) via pyridine‑bisazole; reading uncertain; also: macrocycle closed through pyridine-bisazole moiety, oxazole to thiazole change
Regarding B4, in data set [4], binding was characterised by a dissociation constant (Kd) of 680 nM. This Kd and that of the molecule before are within 1.5-fold of each other.

B5: thiopeptide TL17 (synthetic) (peptide)
chain: SWALLIKQIN[Nle]LY[hGln]SCSC
modifications: bridge (positions not given here) via pyridine‑bisazole; reading uncertain; also: macrocycle closed through a pyridine-bisazole moiety, oxazole to thiazole change
In data set [4], B5 yielded a Kd of 360 nM. Compared with the last molecule, the Kd is about 1.9-fold lower.

The values are drawn from publication PMC10683472, “Deep Learning-Driven Library Design for the De Novo Discovery of Bioactive Thiopeptides” (ACS Central Science, 2023).
